Measurements from PMC8559303 (European Journal of Medicinal Chemistry, 2021).

Tested on: SARS-CoV-2
Assay type: cell-based
Settings: 200 μM, Vero E6, CCK8

| Structure (SMILES) | protection on cells from death caused by viral infection [%] |
| --- | --- |
| CCN1Cc2cc(OC)c(OC)cc2-c2cccc(N)c21 [Compound 12, 5-Ethyl-8,9-dimethoxy-5,6-dihydrophenanthridin-4-amine] | ~100 |
| CCN1Cc2cc(OC)c(OC)cc2-c2cccc(NC(=O)C(F)(F)F)c21 [Compound 16, N-(5-Ethyl-8,9-dimethoxy-5,6-dihydrophenanthridin-4-yl)-2,2,2-trifluoroacetamide] | ~100 |
